Test [1] in a line: Activity at Smo in mouse C3H10T1/2 cells assessed as induction of cell differentiation into osteoblast incubated for 6 days by alkaline phosphatase assay.
Test [2] in a line: Agonist activity at Smo in mouse C3H10T1/2 cells assessed as induction of cell differentiation into osteoblast incubated for 6 days by alkaline phosphatase assay.

Structures are written as SMILES.

Experimental findings from BindingDB's records for doi:10.1016/j.ejmech.2016.05.062 (University of Siena, 2016) are described below.

For orientation: EC50 means the concentration giving half of the maximal effect.

For `CCCCCCn1c(=O)c(C(=O)Nc2ccc(C(=O)OCc3ccccc3)cc2)c(O)c2ccccc21`, the EC50 in test [1] was found to be 2 µM. Still for that read-out and setting: the same measure for `CCCCCn1c(=O)c(C(=O)Nc2ccc(C(=O)OCCCC)cc2)c(O)c2ccccc21`: 0.6 µM; for `CCCCCCn1c(=O)c(C(=O)Nc2ccc(C(=O)O)cc2)c(O)c2ccccc21`: 0.6 µM. The same measure, in the same setting: the same measure for `c1ccc2c(Oc3nc(Nc4ccc(N5CCOCC5)cc4)c4ncn(C5CCCCC5)c4n3)cccc2c1` [Purmorphamine]: 0.8 µM; for `CCCOC(=O)c1ccc(NC(=O)c2c(O)c3cccc4c3n(c2=O)CCC4)cc1`: 0.8 µM; for `CCCCCn1c(=O)c(C(=O)Nc2ccc(C(=O)OCC)cc2)c(O)c2ccccc21`: 0.9 µM. Same read-out and setting: the result for `CCCCn1c(=O)c(C(=O)Nc2ccc(C(=O)OCCC)cc2)c(O)c2ccccc21` reads 0.8 µM.

Take `CNC1CCC(N(Cc2cccc(-c3ccncc3)c2)C(=O)c2sc3ccccc3c2Cl)CC1` (stereo unspecified): in test [2], the EC50 came to 0.13 µM. As for `CCCCCCn1c(=O)c(C(=O)Nc2ccc(C(=O)OCCC)cc2)c(O)c2ccccc21`, the concentration giving a half-maximal response (EC50) in test [1] was 1.2 µM. Take `CCCOC(=O)c1ccc(NC(=O)c2c(O)c3cc(C)ccc3n(CCC)c2=O)cc1`: the EC50 in test [1] is 1.2 µM.

Regarding `CCCOC(=O)c1ccc(NC(=O)c2c(O)c3cc(Cl)ccc3n(CCC)c2=O)cc1`, the concentration giving a half-maximal response (EC50) in test [1] came to 4.9 µM. `C=CCn1c(=O)c(C(=O)Nc2ccc(C(=O)OCCC)cc2)c(O)c2ccccc21`: in test [1], the EC50 was found to be 3.4 µM.

`CCCOC(=O)c1ccc(NC(=O)c2c(O)c3cc(OC)c(OC)cc3n(CCC)c2=O)cc1`: the concentration for a half-maximal effect (EC50) in test [1] was determined as 0.36 µM. Turning to `CCCCCCn1c(=O)c(C(=O)Nc2ccc(C(=O)OC(C)C)cc2)c(O)c2ccccc21`, the EC50 in test [1] amounted to 6.5 µM. Same read-out and setting: the result for `CCCCCCn1c(=O)c(C(=O)Nc2ccc(C(=O)OCC)cc2)c(O)c2ccccc21` reads 3.6 µM. Take `CCCCCCn1c(=O)c(C(=O)Nc2ccc(C(=O)OC(C)(C)C)cc2)c(O)c2ccccc21`: in test [1], the 50% effective concentration (EC50) was 3.1 µM. Still for that read-out and setting: the result for `CCCOC(=O)c1ccc(NC(=O)c2c(O)c3cc(F)ccc3n(CCC)c2=O)cc1` reads 2.4 µM; that for `CCCOC(=O)c1ccc(NC(=O)c2c(O)c3ccccc3n(CCC)c2=O)cc1`, 2.6 µM.

As for `CCCCCn1c(=O)c(C(=O)Nc2ccc(C(=O)OCCC)cc2)c(O)c2ccccc21`, the EC50 in test [1] came to 0.7 µM.

Consider `CCCCCCn1c(=O)c(C(=O)Nc2ccc(C(=O)OCCCC)cc2)c(O)c2ccccc21`, for which the EC50 in test [1] was found to be 1.5 µM. The same measure, in the same setting: the same measure for `CCCCCCn1c(=O)c(C(=O)Nc2ccc(C(=O)NCCCC)cc2)c(O)c2ccccc21`: 5.8 µM.
